Test results: ChEMBL document CHEMBL3352746, “Synthesis and anticancer activity of quinopimaric and maleopimaric acids’ derivatives” (Bioorg Med Chem, 2014)

Experiments:
[1] = Antitumor activity against mouse Ehrlich carcinoma cells implanted in mouse assessed as increase in life span at 50 mg/kg, ip dosed daily for 5 days administered 48 hrs after tumor implantation; assay type: functional; conditions: route intraperitoneal
Mus musculus [2] = test: Toxicity in mouse Ehrlich carcinoma cells implanted mouse assessed as mean ascites volume at 50 mg/kg, ip dosed daily for 5 days administered 48 hrs after tumor implantation; assay type: organism-based; parameters: dose 50 mg/kg, route intraperitoneal; conditions: in vivo
Mus musculus [3] = test: Toxicity in mouse P388 cells implanted mouse assessed as mean spleen weight at 20 mg/kg, ip dosed daily for 5 days administered 24 hrs after tumor implantation; assay type: organism-based; parameters: dose 20 mg/kg, route intraperitoneal; conditions: in vivo
Mus musculus [4] = test: Toxicity in mouse P388 cells implanted mouse assessed as mouse mortality at 40 mg/kg, ip dosed daily for 5 days administered 24 hrs after tumor implantation; assay type: organism-based; parameters: dose 40 mg/kg, route intraperitoneal; conditions: in vivo
Mus musculus [5] = test: Toxicity in mouse P388 cells implanted mouse assessed as mouse mortality at 10 mg/kg, ip dosed daily for 5 days administered 24 hrs after tumor implantation; assay type: organism-based; parameters: dose 10 mg/kg, route intraperitoneal; conditions: in vivo
[6] = Antitumor activity against mouse CA-755 cells implanted in mouse assessed as tumor growth inhibition at 40 mg/kg, ip dosed daily for 5 days measured 5 days after treatment termination; assay type: functional; conditions: CA-755, ip, 120 h, route intraperitoneal, read-out: TGI
[7] = Antitumor activity against mouse CA-755 cells implanted in mouse assessed as tumor growth inhibition at 40 mg/kg, ip dosed daily for 5 days measured 8 to 9 days after treatment termination; assay type: functional; conditions: CA-755, ip, route intraperitoneal, read-out: TGI
[8] = Antitumor activity against mouse AKATOL cells implanted in mouse assessed as tumor growth inhibition at 40 mg/kg, ip dosed daily for 5 days measured 12 days after treatment termination; assay type: functional; conditions: route intraperitoneal, read-out: TGI
[9] = system: Lewis lung carcinoma cell line; test: Antitumor activity against mouse LLC cells implanted in mouse assessed as tumor growth inhibition at 40 mg/kg, ip dosed daily for 5 days measured 16 days after treatment termination; assay type: functional; conditions: route intraperitoneal, read-out: TGI
CCRF-CEM = test: Growth inhibition of human CCRF-CEM cells; assay type: functional
[10] = Growth inhibition of human MOLT4 cells; assay type: functional
NCI-H23 = test: Growth inhibition of human NCI-H23 cells; assay type: functional
[11] = Growth inhibition of human HCC2998 cells; assay type: functional
SW-620 = test: Growth inhibition of human SW620 cells; assay type: functional
[12] = Growth inhibition of human NCI-ADR-RES cells; assay type: functional
MDA-MB-231 = test: Growth inhibition of human MDA-MB-231 cells; assay type: functional
MDA-MB-468 = test: Growth inhibition of human MDA-MB-468 cells; assay type: functional
[13] = read-out: pLC50 (the source's name) (converted)

## COC(=O)[C@]1(C)CCC[C@]2(C)[C@H]3C[C@H]4C(C(C)C)=C[C@]3(CC[C@H]21)[C@@H]1/C(=N/O)CC/C(=N\O)[C@@H]14
[1]
  ILS at 50 mg/kg: -3%
Mus musculus [2]
  Activity: 0.63 mL
Mus musculus [3]
  Activity: 101 mg
Mus musculus [4]
  Activity: Non-toxic
Mus musculus [5]
  Activity: Non-toxic
[6]
  inhibition in vivo at 40 mg/kg: 72%
[7]
  inhibition in vivo at 40 mg/kg: 52%
[8]
  inhibition in vivo at 40 mg/kg: 34%
[9]
  inhibition in vivo at 40 mg/kg: 34%
CCRF-CEM
  GI50: 2.4 µM
CCRF-CEM; [13]
  CC50: 50.1 µM
CCRF-CEM; read-out: pTGI (converted)
  TGI: 7.08 µM
[10]; MOLT-4
  GI50: 1.86 µM
[10]; MOLT-4, read-out: pLC50 (the source's name) (converted)
  CC50: 33.9 µM
[10]; MOLT-4, read-out: pTGI (converted)
  TGI: 6.31 µM
NCI-H23
  GI50: 3.72 µM
NCI-H23; [13]
  CC50: 93.3 µM
NCI-H23; read-out: pTGI (converted)
  TGI: 15.8 µM
[11]; HCC 2998
  GI50: 2.75 µM
[11]; HCC 2998, read-out: pLC50 (the source's name) (converted)
  CC50: 33.1 µM
[11]; HCC 2998, read-out: pTGI (converted)
  TGI: 6.46 µM
SW-620
  GI50: 3.47 µM
SW-620; [13]
  CC50: 49 µM
SW-620; read-out: pTGI (converted)
  TGI: 14.5 µM
[12]
  GI50: 3.16 µM
[12]; read-out: pLC50 (converted)
  CC50: > 100 µM
[12]; read-out: pTGI (converted)
  TGI: 9.55 µM
MDA-MB-231
  GI50: 7.24 µM
MDA-MB-231; [13]
  CC50: 56.2 µM
MDA-MB-231; read-out: pTGI (converted)
  TGI: 22.4 µM
MDA-MB-468
  GI50: 4.68 µM
MDA-MB-468; [13]
  CC50: 64.6 µM
MDA-MB-468; read-out: pTGI (converted)
  TGI: 20 µM
